From ChEMBL document CHEMBL3987221, “The Australian National University Dept Of Immunology Pathogen Box Compounds Screened” (2018)
The source made the active and inactive calls. The rule behind the calls is not given here.

Key:
[1] = biological target: T1, Ferrochelatase, mitochondrial (Homo sapiens) (UniProt P22830); settings: at 10 µM
T1 sequence (whole entry): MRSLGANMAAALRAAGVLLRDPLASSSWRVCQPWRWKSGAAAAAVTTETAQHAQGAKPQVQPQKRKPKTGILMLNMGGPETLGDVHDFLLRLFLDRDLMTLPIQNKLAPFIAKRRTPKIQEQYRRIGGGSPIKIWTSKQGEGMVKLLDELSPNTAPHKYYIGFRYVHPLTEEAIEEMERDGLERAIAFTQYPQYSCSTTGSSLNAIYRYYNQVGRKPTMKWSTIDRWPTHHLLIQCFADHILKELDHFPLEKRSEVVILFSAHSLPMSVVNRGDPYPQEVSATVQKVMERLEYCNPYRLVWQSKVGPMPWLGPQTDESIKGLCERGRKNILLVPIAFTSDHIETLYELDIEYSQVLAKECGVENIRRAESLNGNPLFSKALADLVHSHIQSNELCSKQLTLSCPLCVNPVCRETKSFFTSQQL
Description: Compound was evaluated for the inhibition of human FECH at 10uM

[2] = biological target: T2, Porphobilinogen deaminase (Homo sapiens) (UniProt P08397); settings: at 100 µM
T2 sequence (whole entry): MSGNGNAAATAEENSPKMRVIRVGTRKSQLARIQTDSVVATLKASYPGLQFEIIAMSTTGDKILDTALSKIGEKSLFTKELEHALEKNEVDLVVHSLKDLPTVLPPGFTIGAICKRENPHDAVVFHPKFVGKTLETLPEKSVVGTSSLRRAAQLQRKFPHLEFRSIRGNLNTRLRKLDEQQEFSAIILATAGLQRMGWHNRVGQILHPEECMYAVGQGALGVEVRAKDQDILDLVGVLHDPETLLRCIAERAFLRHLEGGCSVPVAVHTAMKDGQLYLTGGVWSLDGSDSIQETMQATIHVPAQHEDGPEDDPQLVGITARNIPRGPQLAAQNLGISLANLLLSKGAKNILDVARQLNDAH
Description: Compound was evaluated for the inhibition of human HMBS at 100uM

COC(=O)C1=C(C)NC(C)=C(C(=O)OC(C)C)C1c1cccc2nonc12 (stereo not given)
inhibition [1]: inactive
inhibition [2]: inactive

Cc1ccc2[nH]c(C3CCCNC3)c(-c3ccncc3)c2c1 (stereo not given)
inhibition [1]: inactive
inhibition [2]: inactive

C[C@]1(COc2ccc(N3CCC(Oc4ccc(OC(F)(F)F)cc4)CC3)cc2)Cn2cc([N+](=O)[O-])nc2O1
inhibition [1]: inactive
inhibition [2]: inactive

COc1ccc(Cn2cnc3c(-c4ccco4)nc(Cl)nc32)cc1
inhibition [1]: inactive
inhibition [2]: inactive

CS(=O)(=O)c1cccc(-c2cnc3[nH]cc(-c4ccc(CCC(=O)O)cc4)c3c2)c1
inhibition [1]: inactive
inhibition [2]: inactive

O=C(NCCc1c[nH]c2ccccc12)c1cc2ccccc2oc1=O
inhibition [1]: inactive
inhibition [2]: inactive

CCn1cnc2c(Nc3cc(F)cc(F)c3)nc(C#N)nc21
inhibition [1]: inactive
inhibition [2]: inactive

NC(=O)c1cc(Br)ccc1OCCOc1ccccc1
inhibition [1]: inactive
inhibition [2]: inactive

CN1CCN(S(=O)(=O)c2ccc(-c3ccc4c(Nc5ncc(Cl)cn5)ccnc4c3)cc2)CC1
inhibition [1]: inactive
inhibition [2]: inactive

CC(=O)N1CCN(c2ccc(Oc3ccc(Cl)cc3O)cc2)CC1
inhibition [1]: inactive
inhibition [2]: inactive

Cc1cc2ccccc2n1CC(=O)N1CC(C(=O)N2CCCCC2)Oc2ccccc21 (stereo not given)
inhibition [1]: inactive
inhibition [2]: inactive

Nc1ncnc2[nH]nc(Cc3cccc4ccccc34)c12
inhibition [1]: inactive
inhibition [2]: inactive

CCc1c(C)nc(-n2nc(C)cc2NC(=O)c2ccccc2SC)[nH]c1=O
inhibition [1]: inactive
inhibition [2]: inactive

CN1CCC(c2cc(-c3ccncc3)c(-c3ccc(F)cc3)[nH]2)CC1
inhibition [1]: inactive
inhibition [2]: inactive

Cc1noc(C)c1C(=O)N1CCCC(c2[nH]c3c(C)cccc3c2-c2ccncc2)C1 (stereo not given)
inhibition [1]: inactive
inhibition [2]: inactive

COc1cc(C2=NCCN2)cc2cc(-c3ccc(C4=NCCN4)cc3)oc12
inhibition [1]: inactive
inhibition [2]: inactive

O=S(=O)(c1ccc(Cl)cc1)N1CCN(C(=S)NCc2ccco2)CC1
inhibition [1]: inactive
inhibition [2]: inactive

Cc1ccc2[nH]c3c(NCCN(C)C)ncnc3c2c1
inhibition [1]: inactive
inhibition [2]: inactive

Cc1ccc(C(=O)Nc2ccc(S(=O)(=O)O)c3cc(S(=O)(=O)O)cc(S(=O)(=O)O)c23)cc1NC(=O)c1cccc(NC(=O)Nc2cccc(C(=O)Nc3cc(C(=O)Nc4ccc(S(=O)(=O)O)c5cc(S(=O)(=O)O)cc(S(=O)(=O)O)c45)ccc3C)c2)c1
inhibition [1]: inactive
inhibition [2]: inactive

c1cc(C2=NCCN2)cc(-c2cc(-c3ccc(C4=NCCN4)cc3)no2)c1
inhibition [1]: inactive
inhibition [2]: inactive

Cc1[nH]c2cc(F)cc(F)c2c(=O)c1-c1ccc(Oc2ccc(OC(F)(F)F)cc2)cc1
inhibition [1]: inactive
inhibition [2]: inactive

COC(=O)c1ccc(F)cc1NS(=O)(=O)c1cccc(-c2cnn(Cc3ccccc3)c2)c1
inhibition [1]: inactive
inhibition [2]: inactive

CC1=Nc2ccc(Cl)cc2C(c2ccccc2)N1CCNC(=O)CN(C)C (stereo not given)
inhibition [1]: inactive
inhibition [2]: inactive

COc1ccc2nc(C)cc(OCC(=O)Nc3ccccc3OC)c2c1
inhibition [1]: inactive
inhibition [2]: inactive

Nc1c2c(nc3sc4c(c13)CCCC4)CCCC2
inhibition [1]: inactive
inhibition [2]: inactive

CO[C@@H]1CN(c2ccc(C#CC3(O)CN4CCC3CC4)c(Cc3ccccc3)n2)C[C@H]1O (stereo not given in full)
inhibition [1]: inactive
inhibition [2]: inactive

Cc1nc(-c2cccc(NCc3ccccc3)c2)[nH]c1C
inhibition [1]: inactive
inhibition [2]: inactive

CCC(Sc1nc2ccccc2o1)C(=O)Nc1nnc(C)s1 (stereo not given)
inhibition [1]: inactive
inhibition [2]: inactive

Brc1cncc(-c2cc(NCCCn3ccnc3)nc(-c3ccccc3)n2)c1
inhibition [1]: inactive
inhibition [2]: inactive

CCC(=O)Nc1ccccc1C(=O)Nc1ccccn1
inhibition [1]: inactive
inhibition [2]: inactive

Cc1cc(C)c2cc(C(=O)NC3CCCCCCC3)[nH]c2c1
inhibition [1]: inactive
inhibition [2]: inactive

COc1ccc2nc(C)cc(OCC(=O)NCc3ccccc3)c2c1
inhibition [1]: inactive
inhibition [2]: inactive

O=C(NC1=NCCS1)c1sc2cc(F)ccc2c1Cl
inhibition [1]: inactive
inhibition [2]: inactive

O=C1[C@@H](Oc2ccccc2)[C@@H](c2ccc(Cl)cc2)N1CCn1cnc2c(NCc3ccccc3)ncnc21
inhibition [1]: inactive
inhibition [2]: inactive

Cc1cc(C)n2nc(C(=O)Nc3cc(C(F)(F)F)ccc3N3CCOCC3)nc2n1
inhibition [1]: inactive
inhibition [2]: inactive

c1ccc(C[C@@H]2CN(c3nccc(Oc4ccc(-n5ccnc5)cc4)n3)CCN2)cc1
inhibition [1]: inactive
inhibition [2]: inactive

CN1CCCC1CCO[C@](C)(c1ccccc1)c1ccc(Cl)cc1 (stereo not given in full)
inhibition [1]: inactive
inhibition [2]: inactive

CC(C)(C)n1nc(-c2ccccc2)c2c(N)ncnc21
inhibition [1]: inactive
inhibition [2]: inactive

c1coc(CNc2nc(N3CCCCC3)nc3ccccc23)c1
inhibition [1]: inactive
inhibition [2]: inactive

CNC1C(OC2C(OC3C(O)C(O)C(N=C(N)N)C(O)C3N=C(N)N)OC(C)C2(O)C=O)OC(CO)C(O)C1O (stereo not given)
inhibition [1]: inactive
inhibition [2]: inactive

Cc1ccc(-c2cc(C(=O)Nc3cccnc3)c3cc(Br)ccc3n2)cc1
inhibition [1]: inactive
inhibition [2]: inactive

Clc1ccc(CN2CCN(C3=NCCN3)CC2)cc1Cl
inhibition [1]: inactive
inhibition [2]: inactive

CO/N=C(\C(=O)OC)c1ccccc1CO/N=C(\C)c1cccc(C(F)(F)F)c1
inhibition [1]: inactive
inhibition [2]: inactive

CC1COC(Cn2cncn2)(c2ccc(Oc3ccc(Cl)cc3)cc2Cl)O1 (stereo not given)
inhibition [1]: inactive
inhibition [2]: inactive

C[C@H](C(N)=O)N1CCCC[C@@H]1c1ccc(OCc2cccc(F)c2)cc1
inhibition [1]: inactive
inhibition [2]: inactive

CCC(C)NC(=O)c1ccc(NC(=O)C2(c3ccccc3)CCCC2)cc1 (stereo not given)
inhibition [1]: inactive
inhibition [2]: inactive

CN1CCCN(C(c2ccccc2)c2ccc(Cl)cc2)CC1 (stereo not given)
inhibition [1]: inactive
inhibition [2]: inactive

O=C(Nc1cccnc1)c1c(O)c2cccc3c2n(c1=O)CC3
inhibition [1]: inactive
inhibition [2]: inactive

COc1ccc(Oc2ccc([C@@H](C)N(C)c3ncc4c(N)nc(N)nc4n3)cc2)cc1
inhibition [1]: inactive
inhibition [2]: inactive

O=C(Nc1ccccc1)c1ccc(-c2cc3ccncc3cc2OC2CCNCC2)s1
inhibition [1]: inactive
inhibition [2]: inactive

NC(=O)c1cc(-c2ccsc2)ccc1OCCOc1ccccc1
inhibition [1]: inactive
inhibition [2]: inactive

CCOC(=O)c1cc(-c2csc(Nc3c(C)cc(C)cc3C)n2)on1
inhibition [1]: inactive
inhibition [2]: inactive

COc1cc(NC(=O)Cc2nn(C)c(=O)c3ccccc23)ccc1Cl
inhibition [1]: inactive
inhibition [2]: inactive

O=C(C1CCCCC1)N1CC(=O)N2CCc3ccccc3C2C1 (stereo not given)
inhibition [1]: inactive
inhibition [2]: inactive

COc1ccccc1CNC(=O)c1cc(C2CC2)nc2c1cnn2C(C)C
inhibition [1]: inactive
inhibition [2]: inactive

CN1CCN(c2cc(-c3ccc(F)cc3)nc(-c3ccncc3)n2)CC1
inhibition [1]: inactive
inhibition [2]: inactive

CN(C)CCNC(=O)N1CCCN(c2ncnc3cc(-c4ccccc4)sc23)CC1
inhibition [1]: inactive
inhibition [2]: inactive

COc1cncc(-c2cncc(N3CCN(c4ccncc4)CC3)n2)c1
inhibition [1]: inactive
inhibition [2]: inactive

Cc1nn(C)cc1C(C)Nc1nncc(-c2ccc(C(F)(F)F)cc2)n1 (stereo not given)
inhibition [1]: inactive
inhibition [2]: inactive

O=C1O[C@@H](CO)CN1c1cc(F)c(C2=CCN(Cc3ccccc3)CC2)c(F)c1
inhibition [1]: inactive
inhibition [2]: inactive

COc1ccc(OC(C)C(=O)Nc2ccc(Cl)cc2C)cc1 (stereo not given)
inhibition [1]: inactive
inhibition [2]: inactive

CC(C)C(Oc1cccc2ccccc12)C(=O)O (stereo not given)
inhibition [1]: inactive
inhibition [2]: inactive

COc1cc(C2=NCCN2)ccc1-c1cn(-c2cccc(C3=NCCN3)c2)nn1
inhibition [1]: inactive
inhibition [2]: inactive

CC(C)(C)c1cnc(NC(=O)c2ccccc2O)s1
inhibition [1]: inactive
inhibition [2]: inactive

COc1nc2ccc(Br)cc2cc1[C@@H](c1ccccc1)[C@@](O)(CCN(C)C)c1cccc2ccccc12
inhibition [1]: inactive
inhibition [2]: inactive
